# Measurements as given in paper PMC9186362, “Design and biological evaluation of substituted 5,7-dihydro-6H-indolo[2,3-c]quinolin-6-one as novel selective Haspin inhibitors” (Journal of Enzyme Inhibition and Medicinal Chemistry, 2022).
# What was measured:
# Test in all cases: SelectScreen ZLYTE
# Format in all cases: biochemical
# [1] = target: INSR (Homo sapiens, UniProt P06213); settings: ATP Km, read-out: Percentage of inhibition
# Protocol: (§1) We further evaluated the selectivity profile of compound 55 on a larger panel of kinases (SelectScreen Whole Panel, Life Technologies). The inhibition profile of 55, evaluated at 1 μM, is depicted on a dendrogram on Figure 3 where kinases inhibited by a minimum of 80% are shown. A full list of the kinases tested is shown on Table S1 in supplementary information.
# [2] = target: KSR2 (Homo sapiens, UniProt Q6VAB6); settings: ATP Km, read-out: Percentage of inhibition
# Protocol: as §1
# [3] = target: T1, MERTK (Homo sapiens, UniProt Q12866); settings: ATP Km, read-out: Percentage of inhibition
# T1 construct: purchased Life Technologies (SelectScreen Whole Panel service)
# Protocol: as §1
# [4] = target: CAMK1G (CAMKI gamma) (Homo sapiens, UniProt Q96NX5); settings: ATP Km, read-out: Percentage of inhibition
# Protocol: as §1
# [5] = target: T2, FGFR1 (Homo sapiens, UniProt P11362); settings: ATP Km, read-out: Percentage of inhibition
# T2 construct: purchased Life Technologies
# Protocol: as §1
# [6] = target: T3, CSNK1G3 (CK1 gamma 3) (Homo sapiens, UniProt Q9Y6M4); settings: ATP Km, read-out: Percentage of inhibition
# T3 construct: purchased Life Technologies
# T3 sequence (Q9Y6M4 whole entry): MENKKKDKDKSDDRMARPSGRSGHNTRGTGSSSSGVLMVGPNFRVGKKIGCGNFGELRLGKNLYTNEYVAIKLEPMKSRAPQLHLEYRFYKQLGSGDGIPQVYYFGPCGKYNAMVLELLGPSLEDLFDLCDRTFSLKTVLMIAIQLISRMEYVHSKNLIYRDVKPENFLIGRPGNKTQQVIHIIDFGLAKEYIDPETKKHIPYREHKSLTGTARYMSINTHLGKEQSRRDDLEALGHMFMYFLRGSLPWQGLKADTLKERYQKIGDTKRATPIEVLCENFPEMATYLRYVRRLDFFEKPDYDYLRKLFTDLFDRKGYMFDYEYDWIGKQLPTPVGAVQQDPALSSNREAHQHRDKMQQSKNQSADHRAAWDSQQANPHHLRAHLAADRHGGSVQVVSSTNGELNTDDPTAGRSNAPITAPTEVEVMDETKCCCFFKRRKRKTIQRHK
# Protocol: as §1
# [7] = target: T4, FGFR2 N549H (Homo sapiens, UniProt P21802, N549H); settings: ATP Km, read-out: Percentage of inhibition
# T4 construct: purchased Life Technologies (SelectScreen service)
# Protocol: as §1
# [8] = target: PRKX (Homo sapiens, UniProt P51817); settings: ATP Km, read-out: Percentage of inhibition
# Sequence of PRKX (P51817 whole entry): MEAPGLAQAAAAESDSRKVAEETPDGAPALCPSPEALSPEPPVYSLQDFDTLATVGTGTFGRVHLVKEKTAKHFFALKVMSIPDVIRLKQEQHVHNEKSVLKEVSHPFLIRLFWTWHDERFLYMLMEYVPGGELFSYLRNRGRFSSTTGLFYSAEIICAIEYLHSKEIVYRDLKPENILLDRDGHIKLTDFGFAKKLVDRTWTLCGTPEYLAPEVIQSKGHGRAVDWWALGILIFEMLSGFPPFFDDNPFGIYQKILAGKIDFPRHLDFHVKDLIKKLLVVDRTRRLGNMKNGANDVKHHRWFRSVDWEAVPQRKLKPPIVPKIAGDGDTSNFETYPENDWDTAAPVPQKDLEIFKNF
# Protocol: as §1
# [9] = target: T5, DCAMKL1 (DCLK1) (Homo sapiens, UniProt O15075); settings: ATP Km, read-out: Percentage of inhibition
# T5 construct: purchased Life Technologies
# Protocol: as §1
# [10] = target: BMX (Homo sapiens, UniProt P51813); settings: ATP Km, read-out: Percentage of inhibition
# Protocol: as §1
# [11] = target: T6, GRK7 (Homo sapiens, UniProt Q8WTQ7); settings: ATP Km, read-out: Percentage of inhibition
# T6 construct: purchased Life Technologies (SelectScreen service)
# Protocol: as §1
# [12] = target: T7, BRSK1 (SAD1) (Homo sapiens, UniProt Q8TDC3); settings: ATP Km, read-out: Percentage of inhibition
# T7 construct: purchased Life Technologies (SelectScreen Whole Panel service)
# Protocol: as §1
# [13] = target: T8, DAPK3 (ZIPK) (Homo sapiens, UniProt O43293); settings: ATP Km, read-out: Percentage of inhibition
# T8 construct: purchased Life Technologies (SelectScreen Whole Panel service)
# T8 sequence (O43293 whole entry): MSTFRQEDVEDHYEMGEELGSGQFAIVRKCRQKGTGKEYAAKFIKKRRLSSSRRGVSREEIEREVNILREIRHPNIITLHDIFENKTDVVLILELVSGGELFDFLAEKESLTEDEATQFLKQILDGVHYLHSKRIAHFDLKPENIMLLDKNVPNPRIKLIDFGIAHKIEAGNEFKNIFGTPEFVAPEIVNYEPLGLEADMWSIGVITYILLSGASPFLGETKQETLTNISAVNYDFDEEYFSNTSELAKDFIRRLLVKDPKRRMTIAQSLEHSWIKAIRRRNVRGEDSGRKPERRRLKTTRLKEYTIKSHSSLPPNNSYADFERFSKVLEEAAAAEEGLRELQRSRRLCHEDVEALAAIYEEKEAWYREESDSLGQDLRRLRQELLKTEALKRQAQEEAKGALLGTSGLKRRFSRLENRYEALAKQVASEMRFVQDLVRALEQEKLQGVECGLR
# Protocol: as §1
# [14] = target: T9, PRKD2 (PKD2) (Homo sapiens, UniProt Q9BZL6); settings: ATP Km, read-out: Percentage of inhibition
# T9 construct: purchased Life Technologies
# Protocol: as §1
# [15] = target: T10, CDK2/cyclin A (Homo sapiens, UniProt P24941); settings: ATP Km, read-out: Percentage of inhibition
# T10 construct: purchased Life Technologies
# Protocol: as §1
# [16] = target: T11, BRAF V599E (Homo sapiens, UniProt P15056, V600E); settings: ATP 100 µM, read-out: Percentage of inhibition
# T11 construct: purchased Life Technologies
# T11 sequence (P15056 416-766 V600E limits assumed): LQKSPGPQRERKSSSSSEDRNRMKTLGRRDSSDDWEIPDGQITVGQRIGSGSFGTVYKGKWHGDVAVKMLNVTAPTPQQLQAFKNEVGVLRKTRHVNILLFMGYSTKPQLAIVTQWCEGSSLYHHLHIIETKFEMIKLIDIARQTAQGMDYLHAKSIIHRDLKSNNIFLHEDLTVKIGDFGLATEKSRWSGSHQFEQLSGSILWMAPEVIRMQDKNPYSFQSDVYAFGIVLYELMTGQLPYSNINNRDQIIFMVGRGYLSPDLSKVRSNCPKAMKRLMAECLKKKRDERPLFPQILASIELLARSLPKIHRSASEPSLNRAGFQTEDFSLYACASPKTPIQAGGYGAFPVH
# Protocol: as §1
# [17] = target: T12, AURKC (Aurora C) (Homo sapiens, UniProt Q9UQB9); settings: ATP Km, read-out: Percentage of inhibition
# T12 construct: purchased Life Technologies (SelectScreen Whole Panel service)
# T12 sequence (Q9UQB9 whole entry): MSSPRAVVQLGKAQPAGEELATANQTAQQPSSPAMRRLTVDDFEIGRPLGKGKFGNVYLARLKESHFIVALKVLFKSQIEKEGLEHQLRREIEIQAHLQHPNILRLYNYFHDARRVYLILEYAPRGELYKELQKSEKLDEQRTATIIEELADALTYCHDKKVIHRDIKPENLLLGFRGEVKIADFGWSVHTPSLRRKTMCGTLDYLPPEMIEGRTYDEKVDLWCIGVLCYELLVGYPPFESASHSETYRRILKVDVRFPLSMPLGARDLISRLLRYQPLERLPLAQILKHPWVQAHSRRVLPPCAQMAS
# Protocol: as §1
# [18] = target: T13, SBK1 (Homo sapiens, UniProt Q52WX2); settings: ATP Km, read-out: Percentage of inhibition
# T13 construct: purchased Life Technologies (SelectScreen Whole Panel)
# Protocol: as §1
# [19] = target: T14, FLT1 (VEGFR1) (Homo sapiens, UniProt P17948); settings: ATP Km, read-out: Percentage of inhibition
# T14 construct: purchased Life Technologies (SelectScreen Whole Panel service)
# T14 sequence (P17948 27-1338): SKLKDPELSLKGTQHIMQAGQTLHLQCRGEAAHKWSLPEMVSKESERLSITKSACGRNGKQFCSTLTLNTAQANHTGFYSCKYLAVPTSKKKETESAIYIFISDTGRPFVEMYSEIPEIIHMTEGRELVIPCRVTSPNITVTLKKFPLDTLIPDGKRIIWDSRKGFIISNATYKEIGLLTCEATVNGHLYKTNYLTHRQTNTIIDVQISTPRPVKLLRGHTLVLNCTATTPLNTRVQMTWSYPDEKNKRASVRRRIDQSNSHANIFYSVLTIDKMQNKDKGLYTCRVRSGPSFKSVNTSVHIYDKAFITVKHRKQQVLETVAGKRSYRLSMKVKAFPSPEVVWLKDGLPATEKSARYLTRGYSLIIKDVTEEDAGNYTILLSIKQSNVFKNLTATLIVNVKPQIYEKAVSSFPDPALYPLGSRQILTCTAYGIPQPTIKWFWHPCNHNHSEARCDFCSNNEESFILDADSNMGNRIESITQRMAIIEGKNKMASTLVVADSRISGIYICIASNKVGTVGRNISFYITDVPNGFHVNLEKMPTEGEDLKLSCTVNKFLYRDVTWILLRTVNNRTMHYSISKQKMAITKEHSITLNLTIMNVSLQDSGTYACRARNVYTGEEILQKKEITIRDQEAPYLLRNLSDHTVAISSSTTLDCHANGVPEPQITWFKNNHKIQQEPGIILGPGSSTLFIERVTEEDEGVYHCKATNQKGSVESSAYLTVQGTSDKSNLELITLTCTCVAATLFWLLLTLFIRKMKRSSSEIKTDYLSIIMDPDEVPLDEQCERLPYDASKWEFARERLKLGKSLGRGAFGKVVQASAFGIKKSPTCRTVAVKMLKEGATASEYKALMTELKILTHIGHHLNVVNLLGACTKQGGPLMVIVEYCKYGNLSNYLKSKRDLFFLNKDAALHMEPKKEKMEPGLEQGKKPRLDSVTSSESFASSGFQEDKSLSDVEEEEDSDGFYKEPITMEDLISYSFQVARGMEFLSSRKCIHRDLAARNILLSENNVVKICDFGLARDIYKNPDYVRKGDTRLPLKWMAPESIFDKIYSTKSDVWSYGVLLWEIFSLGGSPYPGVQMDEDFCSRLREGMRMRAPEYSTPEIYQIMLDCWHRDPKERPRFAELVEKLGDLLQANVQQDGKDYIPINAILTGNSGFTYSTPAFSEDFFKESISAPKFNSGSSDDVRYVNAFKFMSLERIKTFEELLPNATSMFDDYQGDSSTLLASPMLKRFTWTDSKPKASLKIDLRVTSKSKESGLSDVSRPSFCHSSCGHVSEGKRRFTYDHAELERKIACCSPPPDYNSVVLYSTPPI
# Protocol: as §1
# [20] = target: PAK4 (Homo sapiens, UniProt O96013); settings: ATP Km, read-out: Percentage of inhibition
# Protocol: as §1
# [21] = target: T15, PAK7 (KIAA1264) (Homo sapiens, UniProt Q9P286); settings: ATP Km, read-out: Percentage of inhibition
# T15 construct: purchased Life Technologies (SelectScreen)
# Protocol: as §1
# [22] = target: T16, EEF2K (Homo sapiens, UniProt O00418); settings: ATP Km, read-out: Percentage of inhibition
# T16 construct: purchased Life Technologies (SelectScreen)
# Protocol: as §1
# [23] = target: CLK3 (Homo sapiens, UniProt P49761); settings: ATP Km, read-out: Percentage of inhibition
# Protocol: as §1
# [24] = target: T17, CSNK1E (CK1 epsilon) (Homo sapiens, UniProt P49674); settings: ATP Km, read-out: Percentage of inhibition
# T17 construct: purchased Life Technologies (SelectScreen service)
# Protocol: as §1
# [25] = target: T18, DNA-PK (Homo sapiens, UniProt P78527); settings: ATP Km, read-out: Percentage of inhibition
# T18 construct: purchased Life Technologies (SelectScreen Whole Panel)
# Protocol: as §1
# [26] = target: T19, MAP2K6 (MKK6) (Homo sapiens, UniProt P52564); settings: ATP 100 µM, read-out: Percentage of inhibition
# T19 construct: purchased Life Technologies (SelectScreen Whole Panel service)
# Protocol: as §1
# [27] = target: MKNK1 (MNK1) (Homo sapiens, UniProt Q9BUB5); settings: ATP Km, read-out: Percentage of inhibition
# Protocol: as §1
# [28] = target: T20, JAK1 (Homo sapiens, UniProt P23458); settings: ATP Km, read-out: Percentage of inhibition
# T20 construct: purchased Life Technologies (SelectScreen service)
# Protocol: as §1
# [29] = target: T21, NEK6 (Homo sapiens, UniProt Q9HC98); settings: ATP Km, read-out: Percentage of inhibition
# T21 construct: purchased Life Technologies (SelectScreen)
# T21 sequence (Q9HC98 whole entry): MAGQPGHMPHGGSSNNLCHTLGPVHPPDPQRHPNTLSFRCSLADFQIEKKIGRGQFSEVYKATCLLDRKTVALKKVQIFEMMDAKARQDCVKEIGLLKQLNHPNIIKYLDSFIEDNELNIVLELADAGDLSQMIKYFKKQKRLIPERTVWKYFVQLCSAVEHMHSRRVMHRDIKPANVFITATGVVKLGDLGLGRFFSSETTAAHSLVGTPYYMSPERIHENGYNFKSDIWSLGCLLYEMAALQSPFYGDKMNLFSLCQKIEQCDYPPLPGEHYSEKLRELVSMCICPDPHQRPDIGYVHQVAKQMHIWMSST
# Protocol: as §1
# [30] = target: CSNK1A1L (Homo sapiens, UniProt Q8N752); settings: ATP Km, read-out: Percentage of inhibition
# Protocol: as §1
# [31] = target: T22, CDK1/cyclin B (Homo sapiens, UniProt P06493); settings: ATP Km, read-out: Percentage of inhibition
# T22 construct: purchased Life Technologies
# Protocol: as §1
# [32] = target: T23, MET M1250T (Homo sapiens, UniProt P08581, M1250T); settings: ATP Km, read-out: Percentage of inhibition
# T23 construct: purchased Life Technologies (SelectScreen Whole Panel service)
# Protocol: as §1
# [33] = target: PRKCZ (PKC zeta) (Homo sapiens, UniProt Q05513); settings: ATP Km, read-out: Percentage of inhibition
# Protocol: as §1
# [34] = target: T24, LYN A (Homo sapiens, UniProt P07948); settings: ATP Km, read-out: Percentage of inhibition
# T24 construct: purchased Life Technologies (SelectScreen Whole Panel)
# Protocol: as §1
# [35] = target: T25, NEK9 (Homo sapiens, UniProt Q8TD19); settings: ATP Km, read-out: Percentage of inhibition
# T25 construct: purchased Life Technologies
# T25 sequence (Q8TD19 whole entry): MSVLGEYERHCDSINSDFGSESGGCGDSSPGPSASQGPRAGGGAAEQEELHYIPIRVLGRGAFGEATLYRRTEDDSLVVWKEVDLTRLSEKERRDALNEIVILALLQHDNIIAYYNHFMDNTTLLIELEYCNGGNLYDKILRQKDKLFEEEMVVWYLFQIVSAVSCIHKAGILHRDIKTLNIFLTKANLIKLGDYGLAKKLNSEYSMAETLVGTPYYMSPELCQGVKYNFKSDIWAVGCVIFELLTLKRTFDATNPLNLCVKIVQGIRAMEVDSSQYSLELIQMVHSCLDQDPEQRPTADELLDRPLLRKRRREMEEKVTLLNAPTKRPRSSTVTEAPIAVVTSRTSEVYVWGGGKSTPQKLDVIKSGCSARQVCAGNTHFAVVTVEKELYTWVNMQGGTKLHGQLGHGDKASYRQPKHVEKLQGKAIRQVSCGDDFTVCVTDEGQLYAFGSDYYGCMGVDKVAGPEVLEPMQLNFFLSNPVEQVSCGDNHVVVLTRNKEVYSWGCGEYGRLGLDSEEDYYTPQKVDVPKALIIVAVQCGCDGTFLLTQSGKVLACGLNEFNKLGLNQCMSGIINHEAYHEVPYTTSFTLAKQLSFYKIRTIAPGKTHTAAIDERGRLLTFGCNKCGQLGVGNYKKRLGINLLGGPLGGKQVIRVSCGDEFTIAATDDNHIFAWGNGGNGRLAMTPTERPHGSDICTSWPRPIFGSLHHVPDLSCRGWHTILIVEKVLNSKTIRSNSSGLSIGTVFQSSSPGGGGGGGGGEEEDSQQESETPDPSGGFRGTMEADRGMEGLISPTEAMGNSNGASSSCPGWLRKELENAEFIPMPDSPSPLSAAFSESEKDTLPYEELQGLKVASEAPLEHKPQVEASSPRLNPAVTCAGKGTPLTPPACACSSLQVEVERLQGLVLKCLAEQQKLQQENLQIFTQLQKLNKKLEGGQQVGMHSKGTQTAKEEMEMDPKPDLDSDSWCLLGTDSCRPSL
# Protocol: as §1
# [36] = target: T26, MAPKAPK2 (Homo sapiens, UniProt P49137); settings: ATP Km, read-out: Percentage of inhibition
# T26 construct: purchased Life Technologies
# T26 sequence (P49137 whole entry): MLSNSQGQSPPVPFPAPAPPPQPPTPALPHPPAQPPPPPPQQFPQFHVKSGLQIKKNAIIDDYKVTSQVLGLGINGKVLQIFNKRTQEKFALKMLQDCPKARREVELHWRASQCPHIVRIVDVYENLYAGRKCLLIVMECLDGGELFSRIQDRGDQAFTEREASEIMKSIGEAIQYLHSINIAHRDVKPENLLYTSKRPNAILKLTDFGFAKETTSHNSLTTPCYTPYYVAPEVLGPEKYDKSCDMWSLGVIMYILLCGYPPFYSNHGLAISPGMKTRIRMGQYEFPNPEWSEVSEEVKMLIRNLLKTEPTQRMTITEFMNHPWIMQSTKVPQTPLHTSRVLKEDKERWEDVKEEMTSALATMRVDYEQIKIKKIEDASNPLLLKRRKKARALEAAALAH
# Protocol: as §1
# [37] = target: TXK (Homo sapiens, UniProt P42681); settings: ATP Km, read-out: Percentage of inhibition
# Protocol: as §1
# [38] = target: EGFR (ErbB1) T790M C797S L858R (Homo sapiens, UniProt P00533, C797S/L858R/T790M); settings: ATP Km, read-out: Percentage of inhibition
# Protocol: as §1
# [39] = target: AMPK (A2/B1/G2) (Homo sapiens, UniProt P54646); settings: ATP Km, read-out: Percentage of inhibition
# Protocol: as §1
smiles,measurement,setting,value
"COc1ccc2[nH]c3c(=O)[nH]c4ccc(O)cc4c3c2c1 [Compound 55, 2-Hydroxy-10-methoxy-5,7-dihydro-6H-indolo[2,3-c]quinolin-6-one]",inhibition at 1 µM,[1],21%
same,inhibition at 1 µM,[2],7%
same,inhibition at 1 µM,[3],44%
same,inhibition at 1 µM,[4],14%
same,inhibition at 1 µM,[5],38%
same,inhibition at 1 µM,[6],28%
same,inhibition at 1 µM,[7],24%
same,inhibition at 1 µM,[8],7%
same,inhibition at 1 µM,[9],2%
same,inhibition at 1 µM,[10],14%
same,inhibition at 1 µM,[11],74%
same,inhibition at 1 µM,[12],45%
same,inhibition at 1 µM,[13],44%
same,inhibition at 1 µM,[14],39%
same,inhibition at 1 µM,[15],34%
same,inhibition at 1 µM,[16],96%
same,inhibition at 1 µM,[17],17%
same,inhibition at 1 µM,[18],1%
same,inhibition at 1 µM,[19],10%
same,inhibition at 1 µM,[20],15%
same,inhibition at 1 µM,[21],8%
same,inhibition at 1 µM,[22],7%
same,inhibition at 1 µM,[23],57%
same,inhibition at 1 µM,[24],73%
same,inhibition at 1 µM,[25],54%
same,inhibition at 1 µM,[26],11%
same,inhibition at 1 µM,[27],7%
same,inhibition at 1 µM,[28],23%
same,inhibition at 1 µM,[29],8%
same,inhibition at 1 µM,[30],62%
same,inhibition at 1 µM,[31],35%
same,inhibition at 1 µM,[32],12%
same,inhibition at 1 µM,[33],7%
same,inhibition at 1 µM,[34],49%
same,inhibition at 1 µM,[35],4%
same,inhibition at 1 µM,[36],2%
same,inhibition at 1 µM,[37],22%
same,inhibition at 1 µM,[38],13%
same,inhibition at 1 µM,[39],63%
